Laboratory results: the NIST ThermoML archive (doi:10.1021/je0342825)
Numbers after ± are expanded uncertainties.

Assay: xn = mol fraction of the nth substance listed
Conditions: 101.3 kPa, Liquid

COC(C)=O [methyl ethanoate] + CC(=O)O
Conditions | mass density, 293.15 K [kg/m3] | mass density, 298.15 K [kg/m3] | mass density, 303.15 K [kg/m3] | speed of sound, 293.15 K [m/s] | speed of sound, 298.15 K [m/s] | speed of sound, 303.15 K [m/s] | viscosity, 293.15 K [mPa·s] | viscosity, 298.15 K [mPa·s] | viscosity, 303.15 K [mPa·s]
x2 = 0 | 933.56 ± 0.53 | 926.98 ± 0.53 | 920.34 ± 0.53 | 1174 ± 2 | 1151 ± 2 | 1128 ± 2 | 0.386 ± 0.006 | 0.367 ± 0.006 | 0.348 ± 0.006
x2 = 0.0496 | 938.74 ± 0.53 | 932.23 ± 0.53 | 925.65 ± 0.53 | 1177 ± 2 | 1154 ± 2 | 1131 ± 2 | 0.401 ± 0.006 | 0.381 ± 0.006 | 0.362 ± 0.006
x2 = 0.0956 | 943.44 ± 0.52 | 936.98 ± 0.53 | 930.46 ± 0.53 | 1177 ± 2 | 1155 ± 2 | 1133 ± 2 | 0.417 ± 0.007 | 0.395 ± 0.006 | 0.376 ± 0.006
x2 = 0.195 | 953.14 ± 0.52 | 946.77 ± 0.52 | 940.34 ± 0.53 | 1177 ± 2 | 1155 ± 2 | 1133 ± 2 | 0.46 ± 0.007 | 0.436 ± 0.007 | 0.412 ± 0.006
x2 = 0.3007 | 963.86 ± 0.52 | 957.58 ± 0.52 | 951.24 ± 0.52 | 1176 ± 2 | 1154 ± 2 | 1133 ± 2 | 0.506 ± 0.008 | 0.48 ± 0.007 | 0.453 ± 0.007
x2 = 0.3902 | 973.23 ± 0.52 | 967.02 ± 0.52 | 960.77 ± 0.52 | 1174 ± 2 | 1153 ± 2 | 1132 ± 2 | 0.552 ± 0.008 | 0.521 ± 0.008 | 0.492 ± 0.007
x2 = 0.4937 | 984.52 ± 0.52 | 978.4 ± 0.52 | 972.24 ± 0.52 | 1172 ± 2 | 1151 ± 2 | 1131 ± 2 | 0.617 ± 0.009 | 0.58 ± 0.008 | 0.547 ± 0.008
x2 = 0.5953 | 996.15 ± 0.52 | 990.1 ± 0.52 | 984.03 ± 0.52 | 1169 ± 2 | 1149 ± 2 | 1129 ± 2 | 0.691 ± 0.01 | 0.646 ± 0.009 | 0.608 ± 0.009
x2 = 0.6894 | 1007.51 ± 0.53 | 1001.55 ± 0.53 | 995.56 ± 0.52 | 1166 ± 2 | 1147 ± 2 | 1127 ± 2 | 0.775 ± 0.011 | 0.725 ± 0.01 | 0.68 ± 0.01
x2 = 0.7943 | 1020.92 ± 0.54 | 1015.05 ± 0.54 | 1009.16 ± 0.53 | 1162 ± 2 | 1143 ± 2 | 1124 ± 2 | 0.894 ± 0.012 | 0.834 ± 0.012 | 0.782 ± 0.011
x2 = 0.8987 | 1034.93 ± 0.55 | 1029.17 ± 0.55 | 1023.39 ± 0.54 | 1156 ± 2 | 1138 ± 2 | 1120 ± 2 | 1.037 ± 0.014 | 0.962 ± 0.013 | 0.896 ± 0.012
x2 = 0.9502 | 1042.19 ± 0.56 | 1036.49 ± 0.56 | 1030.77 ± 0.55 | 1153 ± 2 | 1136 ± 2 | 1118 ± 2 | 1.12 ± 0.015 | 1.037 ± 0.014 | 0.964 ± 0.013

O [water] + CC(=O)O
x2 = 0
Conditions | viscosity [mPa·s]
293.15 K | 1.003 ± 0.013
298.15 K | 0.89 ± 0.012
303.15 K | 0.797 ± 0.011

CC(=O)O [acetic acid] + CCOC(C)=O
Conditions | mass density, 293.15 K [kg/m3] | mass density, 298.15 K [kg/m3] | mass density, 303.15 K [kg/m3] | speed of sound, 293.15 K [m/s] | speed of sound, 298.15 K [m/s] | speed of sound, 303.15 K [m/s] | viscosity, 293.15 K [mPa·s] | viscosity, 298.15 K [mPa·s] | viscosity, 303.15 K [mPa·s]
x1 = 0.0697 | 907.35 ± 0.3 | 901.3 ± 0.31 | 895.2 ± 0.31 | 1165 ± 1 | 1143 ± 1 | 1121 ± 1 | 0.473 ± 0.007 | 0.446 ± 0.007 | 0.422 ± 0.006
x1 = 0.0988 | 910.56 ± 0.3 | 904.53 ± 0.31 | 898.44 ± 0.31 | 1166 ± 1 | 1144 ± 1 | 1122 ± 1 | 0.485 ± 0.007 | 0.458 ± 0.007 | 0.433 ± 0.006
x1 = 0.196 | 920.61 ± 0.3 | 914.62 ± 0.31 | 908.59 ± 0.32 | 1166 ± 1 | 1144 ± 1 | 1123 ± 1 | 0.523 ± 0.007 | 0.493 ± 0.007 | 0.465 ± 0.007
x1 = 0.2944 | 931.46 ± 0.31 | 925.5 ± 0.32 | 919.49 ± 0.33 | 1165 ± 1 | 1144 ± 1 | 1123 ± 1 | 0.561 ± 0.008 | 0.528 ± 0.007 | 0.498 ± 0.007
x1 = 0.3968 | 943.68 ± 0.33 | 937.74 ± 0.34 | 931.77 ± 0.34 | 1165 ± 1 | 1143 ± 1 | 1123 ± 1 | 0.617 ± 0.009 | 0.577 ± 0.008 | 0.541 ± 0.008
x1 = 0.5007 | 957.31 ± 0.36 | 951.4 ± 0.36 | 945.46 ± 0.36 | 1163 ± 2 | 1142 ± 2 | 1122 ± 1 | 0.668 ± 0.009 | 0.627 ± 0.009 | 0.589 ± 0.008
x1 = 0.5967 | 971.28 ± 0.38 | 965.4 ± 0.38 | 959.5 ± 0.39 | 1162 ± 2 | 1141 ± 2 | 1121 ± 2 | 0.731 ± 0.01 | 0.684 ± 0.009 | 0.642 ± 0.009
x1 = 0.7 | 987.79 ± 0.41 | 981.94 ± 0.41 | 976.09 ± 0.41 | 1159 ± 2 | 1140 ± 2 | 1120 ± 2 | 0.817 ± 0.011 | 0.762 ± 0.01 | 0.714 ± 0.01
x1 = 0.7989 | 1005.47 ± 0.45 | 999.66 ± 0.45 | 993.85 ± 0.45 | 1157 ± 2 | 1137 ± 2 | 1119 ± 2 | 0.912 ± 0.012 | 0.848 ± 0.012 | 0.792 ± 0.011
x1 = 0.8993 | 1025.8 ± 0.51 | 1020.06 ± 0.5 | 1014.32 ± 0.5 | 1153 ± 2 | 1135 ± 2 | 1117 ± 2 | 1.052 ± 0.014 | 0.975 ± 0.013 | 0.91 ± 0.012
x1 = 0.9493 | 1037.09 ± 0.54 | 1031.4 ± 0.53 | 1025.69 ± 0.53 | 1152 ± 2 | 1134 ± 2 | 1116 ± 2 | 1.113 ± 0.015 | 1.031 ± 0.014 | 0.958 ± 0.013
x1 = 1 | 1049.3 ± 0.57 | 1043.65 ± 0.56 | 1038 ± 0.56 | 1149 ± 2 | 1132 ± 2 | 1115 ± 2 | 1.211 ± 0.016 | 1.115 ± 0.015 | 1.034 ± 0.014

CC(=O)O [acetic acid] + COC(C)=O
x1 = 1
Conditions | mass density [kg/m3] | speed of sound [m/s] | viscosity [mPa·s]
293.15 K | 1049.3 ± 0.57 | 1149 ± 2 | 1.211 ± 0.016
298.15 K | 1043.65 ± 0.56 | 1132 ± 2 | 1.115 ± 0.015
303.15 K | 1038 ± 0.56 | 1115 ± 2 | 1.034 ± 0.014

CCO [ethanol] + CC(=O)O
x2 = 0
Conditions | mass density [kg/m3] | speed of sound [m/s] | viscosity [mPa·s]
293.15 K | 789.75 ± 0.46 | 1162 ± 1 | 1.187 ± 0.015
298.15 K | 785.46 ± 0.47 | 1145 ± 1 | 1.082 ± 0.014
303.15 K | 781.15 ± 0.47 | 1128 ± 1 | 0.987 ± 0.013

CC(=O)O [acetic acid] + CO
Conditions | mass density, 293.15 K [kg/m3] | mass density, 298.15 K [kg/m3] | mass density, 303.15 K [kg/m3] | speed of sound, 293.15 K [m/s] | speed of sound, 298.15 K [m/s] | speed of sound, 303.15 K [m/s] | viscosity, 293.15 K [mPa·s] | viscosity, 298.15 K [mPa·s] | viscosity, 303.15 K [mPa·s]
x1 = 0.0498 | 811.92 ± 0.43 | 807.17 ± 0.44 | 802.41 ± 0.45 | 1133 ± 1 | 1116 ± 1 | 1100 ± 1 | 0.626 ± 0.009 | 0.583 ± 0.008 | 0.543 ± 0.008
x1 = 0.1006 | 831.39 ± 0.41 | 826.6 ± 0.42 | 821.79 ± 0.42 | 1143 ± 1 | 1127 ± 1 | 1111 ± 1 | 0.676 ± 0.009 | 0.628 ± 0.009 | 0.585 ± 0.008
x1 = 0.2016 | 867.61 ± 0.37 | 862.71 ± 0.38 | 857.79 ± 0.39 | 1162 ± 1 | 1146 ± 1 | 1130 ± 1 | 0.784 ± 0.01 | 0.729 ± 0.01 | 0.678 ± 0.009
x1 = 0.2995 | 899.77 ± 0.36 | 894.77 ± 0.36 | 889.74 ± 0.37 | 1178 ± 1 | 1161 ± 1 | 1145 ± 1 | 0.899 ± 0.012 | 0.825 ± 0.011 | 0.765 ± 0.01
x1 = 0.401 | 929.99 ± 0.36 | 924.88 ± 0.36 | 919.75 ± 0.37 | 1189 ± 1 | 1172 ± 1 | 1156 ± 1 | 1.038 ± 0.013 | 0.954 ± 0.013 | 0.879 ± 0.012
x1 = 0.4992 | 956.37 ± 0.37 | 951.16 ± 0.38 | 945.92 ± 0.38 | 1196 ± 2 | 1179 ± 2 | 1162 ± 2 | 1.161 ± 0.015 | 1.062 ± 0.014 | 0.975 ± 0.013
x1 = 0.5996 | 980.68 ± 0.38 | 975.36 ± 0.38 | 970.01 ± 0.39 | 1198 ± 2 | 1181 ± 2 | 1164 ± 2 | 1.274 ± 0.016 | 1.162 ± 0.015 | 1.062 ± 0.014
x1 = 0.6998 | 1001.88 ± 0.41 | 996.46 ± 0.41 | 991.01 ± 0.41 | 1195 ± 2 | 1178 ± 2 | 1161 ± 2 | 1.352 ± 0.017 | 1.229 ± 0.016 | 1.124 ± 0.015
x1 = 0.7969 | 1020.24 ± 0.46 | 1014.72 ± 0.46 | 1009.19 ± 0.45 | 1187 ± 2 | 1170 ± 2 | 1153 ± 2 | 1.38 ± 0.018 | 1.26 ± 0.017 | 1.151 ± 0.016
x1 = 0.9 | – | 1031.06 ± 0.51 | 1025.45 ± 0.51 | – | 1156 ± 2 | 1138 ± 2 | – | 1.224 ± 0.016 | 1.126 ± 0.015
x1 = 0.9555 | 1043.82 ± 0.55 | 1038.2 ± 0.54 | 1032.56 ± 0.53 | 1162 ± 2 | 1145 ± 2 | 1128 ± 2 | 1.283 ± 0.017 | 1.177 ± 0.016 | 1.088 ± 0.015
x1 = 1 | 1049.3 ± 0.57 | 1043.65 ± 0.56 | 1038 ± 0.56 | 1149 ± 2 | 1132 ± 2 | 1115 ± 2 | 1.211 ± 0.016 | 1.115 ± 0.015 | 1.034 ± 0.014
